In US20260078341A1, “TREATMENT OF CANCER USING CHIMERIC ANTIGEN RECEPTOR” (Novartis AG, priority 2014, published 2026):
Read-outs that look alike come from different tables or passages of the source. Marks after values point to notes of the source that are not given here.

Key:
[1] = tested on: influenza vaccine strains and heterologous influenza strains; assay: Influenza geometric mean titers 4 weeks after vaccination in RAD001 cohorts; assay type: in vivo, human; conditions: relative to placebo
Description: FIGS. 41A and 41B. […] In FIG. 41A, the increase above baseline in influenza geometric mean titers to each of the 3 influenza vaccine strains (H1N1 A/California/07/2009, H3N2 A/Victoria/210/2009, B/Brisbane/60/2008) relative to the increase in the placebo cohort 4 weeks after vaccination is shown for each of the RAD001 dosing cohorts in the intention to treat population. […] FIG. 41B is a graph of the same data as in FIG. 41A for the subset of subjects with baseline influenza titers <=1:40.
The increase above baseline in influenza geometric mean titers to 2 heterologous influenza strains (A/H1N1 strain A/New Jersey/8/76 and A/H3N2 strain A/Victoria/361/11) not contained in the influenza vaccine relative to the increase in the placebo cohort 4 weeks after vaccination is shown for each of the RAD001 dosing cohorts in the intention to treat population. * indicates increase in titer relative to placebo exceeds 1 with a posterior probability of at least 80%.

[2] = tested on: A/H1N1/California/07/2009 influenza; assay: Anti-A/H1N1/California/07/2009 influenza IgG and IgM levels in serum; assay type: in vivo, human; conditions: baseline to 4 weeks post vaccination, vs placebo
Description: FIGS. 44A and 44B. Graphic representations of IgG and IgM levels before and after influenza vaccination. Levels of anti-A/H1N1/California/07/2009 influenza IgG and IgM were measured in serum obtained from subjects before and 4 weeks post influenza vaccination.

H3N2 A/Victoria/210/2009 = assay: Hemagglutination inhibition titers after influenza vaccination, A/H3N2 vaccine strain; assay type: in vivo, human; conditions: for HI GMT ratio (CV %) A/H3N2: GMT at week 4 post vaccination/GMT at baseline
Description: The trial was observer-blind because the placebo in the RAD001 0.5 mg daily and 20 mg weekly cohorts differed slightly from the RAD001 tablets in those cohorts. […] The treatment duration for all cohorts was 6 weeks during which time subjects underwent safety evaluations in the clinic every 2 weeks. After subjects had been dosed for 4 weeks, RAD001 steady state levels were measured pre-dose and at one hour post dose. After completing the 6 week course of study drug, subjects were given a 2 week drug free break to reverse any possible RAD001-induced immunosuppression, and then were given a 2012 seasonal influenza vaccination (Agrippal®, Novartis Vaccines and Diagnostics, Siena, Italy) containing the strains H1N1 A/California/07/2009, H3N2 A/Victoria/210/2009, B/Brisbane/60/2008. Four weeks after influenza vaccination, subjects had serum collected for influenza titer measurements. Antibody titers to the 3 influenza vaccine strains as well as to 2 heterologous strains (A/H1N1 strain A/New Jersy/8/76 and A/H3N2 strain A/Victoria/361/11) were measured by standard hemagglutination inhibition assay (Kendal, A P et al. (1982) Concepts and procedures for laboratory-based influenza surveillance. Atlanta: Centers for Disease Control and Prevention B17-B35). Levels of IgG and IgM specific for the A/H1N1/California/07/2009 were measured in serum samples taken before and 4 weeks after influenza vaccination as described previously (Spensieri, F. et al. (2013) Proc. Natl. Acad. Sci. USA 110:14330-14335). Results were expressed as fluorescence intensity.
The primary analysis of geometric mean titer ratios was done using a normal Bayesian regression model with non-informative priors. This model was fitted to each antibody titer on the log scale. The primary outcome in each model was the Day 84 measurement. The Day 63 measurement was included in the outcome vector. The model fitted using SAS 9.2 proc mixed with the prior statement. The covariance structure of the matrix was considered as unstructured (option type=UN). A flat prior was used. For the secondary analysis of seroconversion rates, logistic regression was used.
(§1) The ability of RAD001 to improve immune function in elderly volunteers was evaluated by measuring the serologic response to the 2012 seasonal influenza vaccine. The hemagglutination inhibition (HI) geometric mean titers (GMT) to each of the 3 influenza vaccine strains at baseline and 4 weeks after influenza vaccination are provided in Table 6. The primary analysis variable was the HI GMT ratio (4 weeks post vaccination/baseline). […] This endpoint was chosen because a 1.2-fold increase in the influenza GMT ratio induced by the MF-59 vaccine adjuvant was associated with a decrease in influenza illness (Iob, A et al. (2005) Epidemiol Infect 133:687-693).
Rates of seroconversion 4 weeks after influenza vaccination were also evaluated. Seroconversion was defined as the change from a negative pre-vaccination titer (i.e., HI titer <1:10) to post-vaccination HI titer ≥1:40 or at least 4-fold increase from a non-negative (>1:10) pre-vaccination HI titer.

[3] = tested on: A/H3N2 strain A/Victoria/361/11; assay: Seroconversion to heterologous A/H3N2 strain; assay type: in vivo, human; conditions: for Percentage of subjects who seroconvert to heterologous strain A/H3N2 A/Victoria/361/11: 4 weeks after seasonal influenza vaccination
[4] = Questionnaires on energy and exercise one year after dosing; assay type: in vivo, human; conditions: 0.5 mg daily dosing cohort
[5] = tested on: influenza vaccine strains; assay: Primary endpoint: HI GMT ratio relative to placebo in at least 2 of 3 influenza vaccine strains; assay type: in vivo, human; conditions: ITT population
Description: as §1
Elderly volunteers >=65 years of age were randomized to one of the 3 RAD001 treatment groups (50 subjects per arm) or placebo (20 subjects per arm). Subjects were treated with study drug for 6 weeks, given a 2 week break, and then received influenza (Aggrippal, Novartis) and pneumoccal (Pneumovax 23, Merck), vaccinations. Response to influenza vaccination was assessed by measuring the geometric mean titers (GMTs) by hemagglutination inhibition assay to the 3 influenza strains (H1N1, H3N2 and B influenza subtypes) in the influenza vaccine 4 weeks after vaccination. […] Antibody titers to 7 of the serotypes were measured in our subjects.

For CO[C@H]1C[C@@H]2CC[C@@H](C)[C@@](O)(O2)C(=O)C(=O)N2CCCC[C@H]2C(=O)O[C@H]([C@H](C)C[C@@H]2CC[C@@H](OCCO)[C@H](OC)C2)CC(=O)[C@H](C)/C=C(\C)[C@@H](O)[C@@H](OC)C(=O)[C@H](C)C[C@H](C)/C=C/C=C/C=C/1C [RAD001, (1R,9S,12S,15R,16E,18R,19R,21R,23S,24E,26E,28E,30S,32S,35R)-1,18-dihydroxy-12-{(1R)-2-[(1S,3R,4R)-4-(2-hydroxyethoxy)-3-methoxycyclohexyl]-1-methylethyl}-19,30-dimethoxy-15,17,21,23,29,35-hexamethyl-11,36-dioxa-4-azatricyclo[30.3.1.0^4,9]hexatriaconta-16,24,26,28-tetraene-2,3,10,14,20-pentaone], the “titers to heterologous influenza strains” value [1] was “increase in titers to heterologous influenza strains as compared to placebo”, the “titers to influenza vaccine strains” value [1] was “increase in titers to influenza vaccine strains as compared to placebo” and the “change from baseline in anti-H1N1 influenza IgG and IgM levels” value [2] was “No significant difference”. The “HI GMT (CV %) A/H3N2” value (H3N2 A/Victoria/210/2009; Baseline (2 weeks prior to influenza vaccination), RAD001 0.5 mg daily) was 106.8 (168.2), the “HI GMT (CV %) A/H3N2” value (H3N2 A/Victoria/210/2009; Baseline (2 weeks prior to influenza vaccination), RAD001 5 mg weekly) was 126.04 (162.6) and the “HI GMT (CV %) A/H3N2” value (H3N2 A/Victoria/210/2009; Baseline (2 weeks prior to influenza vaccination), RAD001 20 mg weekly) was 137.1 (211.5). The “HI GMT ratio (CV %) A/H3N2” value (H3N2 A/Victoria/210/2009; RAD001 0.5 mg daily) was 2.1 (152.6), the “HI GMT ratio (CV %) A/H3N2” value (H3N2 A/Victoria/210/2009; RAD001 5 mg weekly) was 2.0 (189.2) and the “HI GMT ratio (CV %) A/H3N2” value (H3N2 A/Victoria/210/2009; RAD001 20 mg weekly) was 2.1 (277.3). For the same compound, the “Percent of subjects with seroconversion to influenza 4 weeks after vaccination, H3N2” value (“Percent of subjects with seroconversion” below) (H3N2 A/Victoria/210/2009; Intention to Treat Population, 0.5 mg) was 27%, the “Percent of subjects with seroconversion” value (H3N2 A/Victoria/210/2009; Intention to Treat Population, 5 mg) was 24% and the “Percent of subjects with seroconversion” value (H3N2 A/Victoria/210/2009; Intention to Treat Population, 20 mg) was 25%. The “Percent of subjects with seroconversion” value (H3N2 A/Victoria/210/2009; Subjects with Baseline Titers <=40, 0.5 mg) was 64%, the “Percent of subjects with seroconversion” value (H3N2 A/Victoria/210/2009; Subjects with Baseline Titers <=40, 5 mg) was 53% and the “Percent of subjects with seroconversion” value (H3N2 A/Victoria/210/2009; Subjects with Baseline Titers <=40, 20 mg) was 71%. The “HI GMT (CV %) A/H3N2” value (H3N2 A/Victoria/210/2009; Week 4 after influenza vaccination, RAD001 0.5 mg daily) was 194.4 (129.1), the “HI GMT (CV %) A/H3N2” value (H3N2 A/Victoria/210/2009; Week 4 after influenza vaccination, RAD001 5 mg weekly) was 223.0 (118.8) and the “HI GMT (CV %) A/H3N2” value (H3N2 A/Victoria/210/2009; Week 4 after influenza vaccination, RAD001 20 mg weekly) was 223.0 (163.6). For the same compound, the “Percentage of subjects who seroconvert to heterologous strain A/H3N2 A/Victoria/361/11” value ([3]; RAD001 0.5 mg daily) was 38%, the “Percentage of subjects who seroconvert to heterologous strain A/H3N2 A/Victoria/361/11” value ([3]; RAD001 5 mg weekly) was 39%* and the “Percentage of subjects who seroconvert to heterologous strain A/H3N2 A/Victoria/361/11” value ([3]; RAD001 20 mg weekly) was 40%*. For the same compound, the “H3N2 heterologous strain seroconversion rate” value ([3]; pooled RAD001 cohorts, versus 20% placebo, p=0.007) was 39%, the “energy and exercise ability as compared to placebo” value [4] was “increased energy and exercise ability” and the “primary endpoint of the study (HI GMT ratio)” value ([5]; 0.5 mg daily or 5 mg weekly) was “met the GMT primary endpoint”. For the same compound, the “primary endpoint of the study (HI GMT ratio)” value ([5]; 20 mg weekly) was “but not higher dose (20 mg weekly) cohort met the primary endpoint”, the “average RAD001 trough level” value (0.5 mg daily dosing cohort) was 0.9 ng/mL and the “average RAD001 trough level” value (20 mg weekly dosing cohort) was 0.7 ng/mL. For the same compound, the “trough level of the study regimens relative to oncology and transplant regimens, fold lower” value (dosing regimens used in the immunization study) was 3-20 fold.
